Laboratory results reported in patent US10143731B2, “Peptides and combination of peptides for use in immunotherapy against various cancers” (immatics biotechnologies GmbH, priority 2015, dated 2018).

What was measured:
HLA-A*02 = experiment: MHC binding assay by UV-ligand exchange and beta2m ELISA, HLA-A*02; parameters: species or system human; conditions: binding to HLA-A*02 ranged by peptide exchange yield (UV-ligand exchange, β2m ELISA)
Source text: (§1) MHC Binding Assays Candidate peptides for T cell based therapies according to the present invention were further tested for their MHC binding capacity (affinity). The individual peptide-MHC complexes were produced by UV-ligand exchange, where a UV-sensitive peptide is cleaved upon UV-irradiation, and exchanged with the peptide of interest as analyzed. Only peptide candidates that can effectively bind and stabilize the peptide-receptive MHC molecules prevent dissociation of the MHC complexes. To determine the yield of the exchange reaction, an ELISA was performed based on the detection of the light chain (β2m) of stabilized MHC complexes. The assay was performed as generally described in Rodenko et al. (Rodenko et al., 2006).
(§2) 96 well MAXISorp plates (NUNC) were coated over night with 2 ug/ml streptavidin in PBS at room temperature, washed 4× and blocked for 1 h at 37° C. in 2% BSA containing blocking buffer. Refolded HLA-A*02:01/MLA-001 monomers served as standards, covering the range of 15-500 ng/ml. Peptide-MHC monomers of the UV-exchange reaction were diluted 100 fold in blocking buffer. Samples were incubated for 1 h at 37° C., washed four times, incubated with 2 ug/ml HRP conjugated anti-β2m for 1 h at 37° C., washed again and detected with TMB solution that is stopped with […]. Absorption was measured at 450 nm. Candidate peptides that show a high exchange yield (preferably higher than 50%, most preferred higher than 75%) are generally preferred for a generation and production of antibodies or fragments thereof, and/or T cell receptors or fragments thereof, as they show sufficient avidity to the MHC molecules and prevent dissociation of the MHC complexes.

CD8+ T cells = experiment: In vitro T-cell priming assay (aAPCs loaded with peptide/MHC and anti-CD28, multimer staining readout); type: cell-based, human; conditions: for Wells positive [%]: in vitro immunogenicity of HLA class I peptides; for Wells (in vitro immunogenicity of HLA class I peptides): CD8+ T cells of healthy donors, three stimulation cycles with peptide/MHC and anti-CD28 coated beads
Description: In an aspect, the peptides are pre-screened for immunogenicity before being included in the warehouse. By way of example, and not limitation, the immunogenicity of the peptides included in the warehouse is determined by a method comprising in vitro T-cell priming through repeated stimulations of CD8+ T cells from healthy donors with artificial antigen presenting cells loaded with peptide/MHC complexes and anti-CD28 antibody.
In order to obtain information regarding the immunogenicity of the TUMAPs of the present invention, the inventors performed investigations using an in vitro T-cell priming assay based on repeated stimulations of CD8+ T cells with artificial antigen presenting cells (aAPCs) loaded with peptide/MHC complexes and anti-CD28 antibody.
In order to perform in vitro stimulations by artificial antigen presenting cells loaded with peptide-MHC complex (pMHC) and anti-CD28 antibody, the inventors first isolated CD8+ T cells from fresh HLA-A*02 leukapheresis products via positive selection using CD8 microbeads (Miltenyi Biotec, Bergisch-Gladbach, Germany) of healthy donors obtained from the University clinics Mannheim, Germany, after informed consent.
PBMCs and isolated CD8+ lymphocytes were incubated in T-cell medium (TCM) until use consisting of RPMI-Glutamax (Invitrogen, Karlsruhe, Germany) supplemented with 10% heat inactivated human AB serum (PAN-Biotech, Aidenbach, Germany), 100 U/ml Penicillin/100 μg/ml Streptomycin (Cambrex, Cologne, Germany), 1 mM sodium pyruvate (CC Pro, Oberdorla, Germany), 20 μg/ml Gentamycin (Cambrex). 2.5 ng/ml IL7 (PromoCell, Heidelberg, Germany) and 10 U/ml IL-2 (Novartis Pharma, Nürnberg, Germany) were also added to the TCM at this step.
Generation of pMHC/anti-CD28 coated beads, T-cell stimulations and readout was performed in a highly defined in vitro system using four different pMHC molecules per stimulation condition and 8 different pMHC molecules per readout condition.
The purified co-stimulatory mouse IgG2a anti human CD28 Ab 9.3 (Jung et al., 1987) was chemically biotinylated using Sulfo-N-hydroxysuccinimidobiotin as recommended by the manufacturer (Perbio, Bonn, Germany). Beads used were 5.6 μm diameter streptavidin coated polystyrene particles (Bangs Laboratories, Illinois, USA).
pMHC used for positive and negative control stimulations were A*0201/MLA-001 (peptide […] (SEQ ID NO. 303) from modified Melan-A/MART-1) and A*0201/DDX5-001 ([…] from DDX5, SEQ ID NO. 304), respectively.
800.000 beads/200 μl were coated in 96-well plates in the presence of 4×12.5 ng different biotin-pMHC, washed and 600 ng biotin anti-CD28 were added subsequently in a volume of 200 μl. Stimulations were initiated in 96-well plates by co-incubating 1×10^6 CD8+ T cells with 2×10^5 washed coated beads in 200 μl TCM supplemented with 5 ng/ml IL-12 (PromoCell) for 3 days at 37° C. Half of the medium was then exchanged by fresh TCM supplemented with 80 U/ml IL-2 and incubating was continued for 4 days at 37° C. This stimulation cycle was performed for a total of three times. For the pMHC multimer readout using 8 different pMHC molecules per condition, a two-dimensional combinatorial coding approach was used as previously described (Andersen et al., 2012) with minor modifications encompassing coupling to 5 different fluorochromes. Finally, multimeric analyses were performed by staining the cells with Live/dead near IR dye (Invitrogen, Karlsruhe, Germany), CD8-FITC antibody clone SK1 (BD, Heidelberg, Germany) and fluorescent pMHC multimers. For analysis, a BD LSRII SORP cytometer equipped with appropriate lasers and filters was used. Peptide specific cells were calculated as percentage of total CD8+ cells. Evaluation of multimeric analysis was done using the FlowJo software (Tree Star, Oregon, USA). In vitro priming of specific multimer+CD8+ lymphocytes was detected by comparing to negative control stimulations.

HLA-A*24 = experiment: MHC binding assay by UV-ligand exchange and beta2m ELISA, HLA-A*24; parameters: species or system human; conditions: binding to HLA-A*24 ranged by peptide exchange yield (UV-ligand exchange, β2m ELISA)
Source text: as §1, §2

[1] = system: advanced non-resectable HCC; conditions: patients with advanced non-resectable HCC; cited from earlier work
HLA-A2 = HLA-A2 (Homo sapiens, UniProt P04439, D140Y/D185E/D98H/E176V/E277Q/G131W/G231S/I119V/I121R/I166T/I218V/L10V/L300P/L318F/N151K/N90K/P208A/P217A/Q86G/Q94H/R138H/R169H/T345S); conditions: prediction in US20150306197 A1 / US20110142842 A1, not tested further; cited from earlier work

| Molecule | Peptide exchange (HLA-A*02) | also measured |
| --- | --- | --- |
| 1 (LLYPEPWSV; listed as Homo sapiens) [compound 1] | ++++ (> = 75% = ++++) |  |
| 84 (ALCPRIHEV; listed as Homo sapiens) [compound 84] | ++++ (> = 75% = ++++) |  |
| 95 (GLLGSLFFL; listed as Homo sapiens) [compound 95] | ++++ (> = 75% = ++++) |  |
| 125 (SLADYEHFV; listed as Homo sapiens) [compound 125] | ++++ (> = 75% = ++++) |  |
| 133 (ALLPRLHQL; listed as Homo sapiens) [compound 133] | ++++ (> = 75% = ++++) |  |
| 153 (FISERVEVV; listed as Homo sapiens) [compound 153] | ++++ (> = 75% = ++++) |  |
| 158 (HYSQELSLLYL; listed as Homo sapiens) [compound 158] |  | Wells positive [%] (CD8+ T cells): + (<20% = +); Peptide exchange (HLA-A*24): ++++ (> = 75% = ++++) |
| 159 (LYNKGFIYL; listed as Homo sapiens) [compound 159] |  | Wells positive [%] (CD8+ T cells): ++++ (> = 70% = ++++); Peptide exchange (HLA-A*24): ++++ (> = 75% = ++++) |
| 163 (DYLKGLASF; listed as Homo sapiens) [compound 163] |  | Wells positive [%] (CD8+ T cells): + (<20% = +); Peptide exchange (HLA-A*24): ++++ (> = 75% = ++++) |
| 165 (DYTTWTALL; listed as Homo sapiens) [compound 165] |  | Wells positive [%] (CD8+ T cells): + (<20% = +); Peptide exchange (HLA-A*24): ++++ (> = 75% = ++++) |
| 167 (NYINRILKL; listed as Homo sapiens) [compound 167] |  | Wells positive [%] (CD8+ T cells): + (<20% = +); Peptide exchange (HLA-A*24): ++++ (> = 75% = ++++) |
| 204 (TYELRYFQI; listed as Homo sapiens) [compound 204] |  | Wells positive [%] (CD8+ T cells): + (<20% = +); Peptide exchange (HLA-A*24): ++++ (> = 75% = ++++) |
| 245 (SLLDLPLSL; listed as Homo sapiens) [compound 245] | ++++ (> = 75% = ++++) |  |
| 291 (KLDETGNSL; listed as Homo sapiens) [compound 291] |  | Wells (in vitro immunogenicity of HLA class I peptides) (CD8+ T cells): + (<20% = +) |
| 292 (GMMTAILGV; listed as Homo sapiens) [compound 292] |  | Wells (in vitro immunogenicity of HLA class I peptides) (CD8+ T cells): + (<20% = +) |
| 293 (FLVDGSWSI; listed as Homo sapiens) [compound 293] |  | Wells (in vitro immunogenicity of HLA class I peptides) (CD8+ T cells): + (<20% = +) |
| 296 (TYVDSSHTI; listed as Homo sapiens) [compound 296] |  | Wells (in vitro immunogenicity of HLA class I peptides) (CD8+ T cells): + (<20% = +) |
| 298 (RYLEGTSCI; listed as Homo sapiens) [compound 298] |  | Wells (in vitro immunogenicity of HLA class I peptides) (CD8+ T cells): + (<20% = +) |
| 300 (AYVLRLETL; listed as Homo sapiens) [compound 300] |  | Wells (in vitro immunogenicity of HLA class I peptides) (CD8+ T cells): + (<20% = +) |
| 301 (AYKPGALTF; listed as Homo sapiens) [compound 301] |  | Wells (in vitro immunogenicity of HLA class I peptides) (CD8+ T cells): + (<20% = +) |
| CNC(=O)c1cc(Oc2ccc(NC(=O)Nc3ccc(Cl)c(C(F)(F)F)c3)cc2)ccn1 [Sorafenib] |  | increase of survival [1]: about 3 months |
| KLFTSVFGV (listed as Homo sapiens) [SEQ ID No. 305] |  | predicted binding to HLA-A2 / HLA-A*0201 (HLA-A2): binding to HLA-A*0201 |

The next lines start with results.

| Peptide exchange (HLA-A*02) | Molecule | also measured |
| --- | --- | --- |
| ++++ (> = 75% = ++++) | 3 (KLEENGDLYL; listed as Homo sapiens) [compound 3] |  |
| ++++ (> = 75% = ++++) | 4 (KLMPGTYTL; listed as Homo sapiens) [compound 4] | Wells positive [%] (CD8+ T cells): + (<20% = +) |
| ++++ (> = 75% = ++++) | 12 (GLLPLLHRA; listed as Homo sapiens) [compound 12] | Wells positive [%] (CD8+ T cells): ++++ (> = 70% = ++++) |
| ++++ (> = 75% = ++++) | 14 (ILAKDLFEI; listed as Homo sapiens) [compound 14] |  |
| ++++ (> = 75% = ++++) | 16 (YTLDIPVLFGV; listed as Homo sapiens) [compound 16] |  |
| ++++ (> = 75% = ++++) | 34 (FLLATEVVTV; listed as Homo sapiens) [compound 34] |  |
| ++++ (> = 75% = ++++) | 51 (LLFSRLCGA; listed as Homo sapiens) [compound 51] |  |
| ++++ (> = 75% = ++++) | 92 (GLLFSLRSV; listed as Homo sapiens) [compound 92] |  |
| ++++ (> = 75% = ++++) | 112 (SLGKFTFDV; listed as Homo sapiens) [compound 112] |  |
| ++++ (> = 75% = ++++) | 126 (QMFQYFITV; listed as Homo sapiens) [compound 126] |  |
| ++++ (> = 75% = ++++) | 129 (RLQDILWFL; listed as Homo sapiens) [compound 129] |  |
| ++++ (> = 75% = ++++) | 147 (YLMDDTVEI; listed as Homo sapiens) [compound 147] |  |
| ++++ (> = 75% = ++++) | 229 (AILAHLNTV; listed as Homo sapiens) [compound 229] |  |
| ++++ (> = 75% = ++++) | 248 (YLDRFLAGV; listed as Homo sapiens) [compound 248] |  |
| ++++ (> = 75% = ++++) | 249 (GLCERLVSL; listed as Homo sapiens) [compound 249] | Wells positive [%] (CD8+ T cells): + (<20% = +) |
| ++++ (> = 75% = ++++) | 257 (GLYTDPCGV; listed as Homo sapiens) [compound 257] |  |
| ++++ (> = 75% = ++++) | 258 (LLSERFINV; listed as Homo sapiens) [compound 258] |  |
